{"source": "paper PMC6815239", "about": "(Nature chemistry, 2019)", "key": {"MalA": {"biological_target": "MalA (Malbranchea aurantiaca, UniProt L0E155)", "sequence (L0E155 whole entry)": "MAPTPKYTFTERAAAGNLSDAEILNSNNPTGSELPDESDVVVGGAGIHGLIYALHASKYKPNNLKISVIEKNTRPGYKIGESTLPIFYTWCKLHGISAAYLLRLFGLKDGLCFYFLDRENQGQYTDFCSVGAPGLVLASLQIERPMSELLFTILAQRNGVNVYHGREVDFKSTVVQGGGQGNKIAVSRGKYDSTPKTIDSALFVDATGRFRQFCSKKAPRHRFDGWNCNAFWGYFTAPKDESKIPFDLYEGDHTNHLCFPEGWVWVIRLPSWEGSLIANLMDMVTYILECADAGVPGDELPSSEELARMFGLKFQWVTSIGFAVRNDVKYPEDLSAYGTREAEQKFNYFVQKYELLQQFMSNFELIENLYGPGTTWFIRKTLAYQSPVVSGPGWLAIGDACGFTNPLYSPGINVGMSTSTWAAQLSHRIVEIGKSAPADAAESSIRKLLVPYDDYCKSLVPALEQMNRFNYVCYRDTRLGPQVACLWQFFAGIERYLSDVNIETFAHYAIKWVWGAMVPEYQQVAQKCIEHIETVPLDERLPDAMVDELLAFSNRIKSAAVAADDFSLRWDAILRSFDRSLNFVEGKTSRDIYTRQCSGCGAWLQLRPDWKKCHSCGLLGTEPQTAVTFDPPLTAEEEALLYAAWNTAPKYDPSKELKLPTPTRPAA", "assay": "LC/MS halogenation assay", "format": "biochemical", "details": "full pathway reconstitution, NaCl"}, "MalG R": {"biological_target": "MalG R (Malbranchea aurantiaca, UniProt L0E2Z1)", "sequence (L0E2Z1 1950-2345)": "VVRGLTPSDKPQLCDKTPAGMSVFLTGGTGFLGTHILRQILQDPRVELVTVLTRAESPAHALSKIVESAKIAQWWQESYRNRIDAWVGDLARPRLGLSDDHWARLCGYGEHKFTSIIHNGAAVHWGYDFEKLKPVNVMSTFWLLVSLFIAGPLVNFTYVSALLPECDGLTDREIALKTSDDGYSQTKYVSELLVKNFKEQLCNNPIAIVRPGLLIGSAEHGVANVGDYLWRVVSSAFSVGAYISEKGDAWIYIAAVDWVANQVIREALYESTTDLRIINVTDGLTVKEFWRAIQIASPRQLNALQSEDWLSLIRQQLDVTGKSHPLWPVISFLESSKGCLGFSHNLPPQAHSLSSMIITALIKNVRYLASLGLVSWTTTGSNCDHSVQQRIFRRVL", "assay": "LC/MS product formation", "format": "biochemical", "details": "substrate analog 23 loaded on MalG T2"}, "PhqE [1]": {"biological_target": "T1, PhqE (Penicillium fellutanum, UniProt L0E2Z4)", "T1 sequence (L0E2Z4 whole entry)": "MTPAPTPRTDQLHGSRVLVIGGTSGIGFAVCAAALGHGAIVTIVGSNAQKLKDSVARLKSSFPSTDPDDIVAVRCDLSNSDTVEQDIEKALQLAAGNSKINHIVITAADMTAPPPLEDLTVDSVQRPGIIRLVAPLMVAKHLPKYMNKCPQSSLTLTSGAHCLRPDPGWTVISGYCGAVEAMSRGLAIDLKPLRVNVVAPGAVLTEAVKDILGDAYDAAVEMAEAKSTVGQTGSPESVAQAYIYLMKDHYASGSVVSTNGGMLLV", "assay": "X-ray crystal structure, […] Å", "format": "binding", "details": "complex with (+)-premalbrancheamide"}, "PhqE [2]": {"biological_target": "T1, PhqE", "assay": "X-ray crystal structure", "format": "binding", "details": "crystals grown with NAD+"}, "MalB": {"biological_target": "T2, MalB (Malbranchea aurantiaca, UniProt L0E2Y5)", "T2 sequence (L0E2Y5 1-369)": "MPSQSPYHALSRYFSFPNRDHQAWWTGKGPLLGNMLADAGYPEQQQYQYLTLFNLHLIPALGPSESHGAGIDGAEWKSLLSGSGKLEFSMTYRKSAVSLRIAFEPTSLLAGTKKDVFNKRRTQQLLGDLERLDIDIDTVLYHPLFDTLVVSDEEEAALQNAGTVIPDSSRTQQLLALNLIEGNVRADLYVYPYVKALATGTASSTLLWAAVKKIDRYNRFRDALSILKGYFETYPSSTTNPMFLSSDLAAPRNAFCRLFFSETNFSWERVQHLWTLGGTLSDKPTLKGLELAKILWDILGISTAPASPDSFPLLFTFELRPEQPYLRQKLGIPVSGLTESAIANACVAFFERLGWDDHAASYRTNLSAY", "assay": "prenyltransferase assay, LC/MS", "format": "biochemical", "details": "substrate-loaded MalG domains, NADPH"}, "MalE": {"biological_target": "T3, MalE (Malbranchea aurantiaca, UniProt L0E2P7)", "T3 sequence (L0E2P7 1-438)": "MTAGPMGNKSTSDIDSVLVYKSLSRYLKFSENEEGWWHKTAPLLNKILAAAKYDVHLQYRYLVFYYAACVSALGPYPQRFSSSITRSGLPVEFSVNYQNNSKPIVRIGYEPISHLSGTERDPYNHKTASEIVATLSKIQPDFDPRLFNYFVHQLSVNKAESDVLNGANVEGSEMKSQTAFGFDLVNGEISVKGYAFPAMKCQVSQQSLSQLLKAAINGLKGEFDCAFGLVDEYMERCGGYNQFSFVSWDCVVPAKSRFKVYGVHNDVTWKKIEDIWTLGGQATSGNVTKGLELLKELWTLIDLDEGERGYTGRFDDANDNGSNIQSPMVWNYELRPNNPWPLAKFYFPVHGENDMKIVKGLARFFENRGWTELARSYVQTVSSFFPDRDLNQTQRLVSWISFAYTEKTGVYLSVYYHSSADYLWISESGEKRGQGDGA", "assay": "prenyltransferase assay, LC/MS", "format": "biochemical", "details": "substrate-loaded MalG domains, NADPH"}}, "data": [{"smiles": "Cc1cc2c(cc1C)N(C[C@H](O)[C@H](O)[C@H](O)COP(=O)(O)OP(=O)(O)OC[C@H]1O[C@@H](n3cnc4c(N)ncnc43)[C@H](O)[C@@H]1O)c1[nH]c(=O)[nH]c(=O)c1N2", "note": "[FADH2]", "values": [{"measurement": "LC/MS halogenation assay", "setting": "MalA", "result": "We incubated MalA with its pathway partners (L-Pro and L-Trp MalG, MalE and MalC, NADPH"}]}, {"smiles": "NC(=O)C1=CN([C@@H]2O[C@H](COP(=O)(O)OP(=O)(O)OC[C@H]3O[C@@H](n4cnc5c(N)ncnc54)[C@H](OP(=O)(O)O)[C@@H]3O)[C@@H](O)[C@H]2O)C=CC1", "note": "[NADPH]", "values": [{"measurement": "LC/MS product formation", "setting": "MalG R", "result": "NADPH was the preferred cofactor in this reaction"}]}, {"smiles": "NC(=O)c1ccc[n+]([C@@H]2O[C@H](COP(=O)(O)OP(=O)(O)OC[C@H]3O[C@@H](n4cnc5c(N)ncnc54)[C@H](OP(=O)(O)O)[C@@H]3O)[C@@H](O)[C@H]2O)c1", "note": "[NADP^+]", "values": [{"measurement": "X-ray crystal structure, 2.4 Å", "setting": "PhqE [1]", "result": "PhqE crystals grown with NADP^+ showed strong electron density for the cofactor"}]}, {"smiles": "NC(=O)c1ccc[n+]([C@@H]2O[C@H](COP(=O)(O)OP(=O)(O)OC[C@H]3O[C@@H](n4cnc5c(N)ncnc54)[C@H](O)[C@@H]3O)[C@@H](O)[C@H]2O)c1", "note": "[NAD^+]", "values": [{"measurement": "X-ray crystal structure", "setting": "PhqE [2]", "result": "while NAD^+ showed weak electron density"}]}, {"smiles": "CC(C)=CCOP(=O)(O)OP(=O)(O)O", "note": "[dimethylallyl pyrophosphate]", "values": [{"measurement": "prenyltransferase assay, LC/MS", "setting": "MalB", "result": "whereas MalB displayed modest activity"}, {"measurement": "prenyltransferase assay, LC/MS", "setting": "MalE", "result": "dimethylallyl pyrophosphate (DMAPP), the prenyl donor. MalE readily catalyzed a C2 reverse prenyl transfer"}]}]}
